Activity and LD50 data for one compound are collected here from ChEMBL document CHEMBL6087462, “Cuminaldehyde Potentiates Antiproteolytic Peptide Efficacy via Parallel Pathways of Enhanced Inner Membrane-Damaging Activity and Inhibition of Bacterial Energy Metabolism” (J Med Chem, 2025).

One data set relates to RAW264.7. The experiment in a line: Cytotoxicity against mouse RAW264.7 cells assessed as cell death incubated for 4 hrs by MTT assay. It counts as toxicity, cell-based. Particulars: raw264.7, 4 h.
In another data set the test system is HEK-293T. Put plainly: Cytotoxicity against human HEK293T cells assessed as cell death incubated for 4 hrs by MTT assay. It is filed as toxicity, cell-based.
A short description of data set [1]: Cytotoxicity against porcine IPEC-J2 cells assessed as cell death incubated for 4 hrs by MTT assay. It counts as toxicity, cell-based, Sus scrofa. To be noted: pig, ipec-j2, 4 h. On the technique in general: Formazan colour is commonly taken as a measure of viable cells.
Data set [2] in a line: Acute toxicity in C57BL/6 mouse assessed as lethal dose measured for 5 days. To be noted: in vivo, time 5 day.
A short description of data set [3]: Acute toxicity in C57BL/6 mouse assessed as animal survival at 80 mg/kg, po measured for 5 days. It counts as organism-based. Particulars: in vivo, 120 h, time 5 day.
Data set [4] in a line: Acute toxicity in C57BL/6 mouse assessed as animal survival at 40 mg/kg, po measured for 5 days. It is filed as organism-based. Particulars: in vivo, 120 h, time 5 day.
Data set [5] is described as follows: Acute toxicity in C57BL/6 mouse assessed as ruffled fur at 80 mg/kg, po measured for 5 days. It is filed as organism-based. To be noted: in vivo, 120 h, time 5 day.
The nature of data set [6]: Subacute toxicity in C57BL/6 mouse assessed as reduction in body weight loss at 125 mg/kg, po administered for 3 days. It is filed as organism-based. Particulars: in vivo, 72 h, time 3 day.
A short description of data set [7]: Subacute toxicity in C57BL/6 mouse assessed as change in liver weight at 125 mg/kg, po administered for 3 days. It counts as organism-based. Particulars: in vivo, 72 h, time 3 day.
Data set [8] can be described thus: Subacute toxicity in C57BL/6 mouse assessed as change in kidney weight at 125 mg/kg, po administered for 3 days. It counts as organism-based. To be noted: in vivo, 72 h, time 3 day.
A short description of data set [9]: Subacute toxicity in C57BL/6 mouse assessed as change in spleen weight at 125 mg/kg, po administered for 3 days. Particulars: in vivo, 72 h, time 3 day. It is filed as organism-based.
A short description of data set [10]: Subacute toxicity in C57BL/6 mouse assessed as change in BUN level at 125 mg/kg, po administered for 3 days. It is filed as organism-based. Particulars: in vivo, 72 h, time 3 day.
Data set [11] in a line: Subacute toxicity in C57BL/6 mouse assessed as change in CREA level at 125 mg/kg, po administered for 3 days. It is filed as organism-based. Particulars: in vivo, 72 h, time 3 day.
Data set [12] in a line: Subacute toxicity in C57BL/6 mouse assessed as change in ALT level at 125 mg/kg, po administered for 3 days. It counts as organism-based. Particulars: in vivo, 72 h, time 3 day.

A word on the LD50: it is the dose at which mortality reaches 50%. Regarding `CC[C@H](C)[C@H](NC(=O)[C@@H](NC(=O)[C@@H](CCCNC(=N)N)NC(=O)[C@H](C)NC(=O)[C@H](C)NC(=O)[C@@H](N)Cc1cccc2ccccc12)[C@@H](C)CC)C(=O)N[C@@H](CC(C)C)C(=O)N[C@H](CCCNC(=N)N)C(=O)N[C@@H](Cc1c[nH]c2ccccc12)C(=O)N[C@H](CCCNC(=N)N)C(=O)N[C@@H](Cc1ccccc1)C(=O)N[C@@H](CCCNC(=N)N)C(=O)O`, the Activity in the data set with RAW264.7 is recorded as < 50%; in the data set on HEK-293T, < 50%; in data set [1], < 50%; in [3], “Non-toxic”; in data set [4] it was “Non-toxic”; in data set [5] it was “Non-toxic”. Also, the Activity result in data set [6], in data set [7], in data set [8], in data set [9], in [10] and in data set [11] was “Non-toxic” each time. In [12], the Activity result was “Non-toxic”. In addition, in data set [2], the LD50 at 120 h is 1010 mg/kg.
